Experimental data: US5936065A, “CS-1 peptidomimetics, compositions and methods of using the same” (Cytel Corporation, priority 1995, dated 1999)
Square brackets hold non-standard residues; d marks the D form. Peptide text beside a SMILES is read from it. * marks the point of attachment. NHOctadecyl = CCCCCCCCCCCCCCCCCCN*; Cya = N[C@@H](CS(=O)(=O)O)C(=O)O; NMeF = CN[C@@H](Cc1ccccc1)C(=O)O; Cha = N[C@@H](CC1CCCCC1)C(=O)O; NMeD = CN[C@@H](CC(=O)O)C(=O)O; Phg = N[C@H](C(=O)O)c1ccccc1; X8 = CCCCCCCCCCCCCCCCCCO*; Nle = CCCC[C@H](N)C(=O)O; Piperidide = C1CCN(*)CC1; X7 = O=C(CO*)OCc1ccccc1; NHDecyl = CCCCCCCCCCN*; PhAc = O=C(Cc1ccccc1)*; ODecyl = CCCCCCCCCCO*; X1 = CCCCCCCCCCCCCCO*; X4 = CCN(CC)C(=O)CO*; Bz = O=C(c1ccccc1)*; OBn = c1ccc(CO*)cc1; X5 = CCCCCCCCCCCCO*; Ahx = NCCCCCC(=O)O

target: T1, VLA-4 receptor (Homo sapiens, UniProt P05556+P13612); test: In vitro binding assay: inhibition of binding of 51Cr-labeled Jurkat cells to solid phase-bound CS-1 compound (SEQ ID NO:1); type: cell-based; settings: not given
T1 construct: inflammatory cells that contain the VLA-4 receptor [Jurkat cells; host or cells: Jurkat cells (human T lymphoblastic line)
T1 sequence (P13612 34-1032): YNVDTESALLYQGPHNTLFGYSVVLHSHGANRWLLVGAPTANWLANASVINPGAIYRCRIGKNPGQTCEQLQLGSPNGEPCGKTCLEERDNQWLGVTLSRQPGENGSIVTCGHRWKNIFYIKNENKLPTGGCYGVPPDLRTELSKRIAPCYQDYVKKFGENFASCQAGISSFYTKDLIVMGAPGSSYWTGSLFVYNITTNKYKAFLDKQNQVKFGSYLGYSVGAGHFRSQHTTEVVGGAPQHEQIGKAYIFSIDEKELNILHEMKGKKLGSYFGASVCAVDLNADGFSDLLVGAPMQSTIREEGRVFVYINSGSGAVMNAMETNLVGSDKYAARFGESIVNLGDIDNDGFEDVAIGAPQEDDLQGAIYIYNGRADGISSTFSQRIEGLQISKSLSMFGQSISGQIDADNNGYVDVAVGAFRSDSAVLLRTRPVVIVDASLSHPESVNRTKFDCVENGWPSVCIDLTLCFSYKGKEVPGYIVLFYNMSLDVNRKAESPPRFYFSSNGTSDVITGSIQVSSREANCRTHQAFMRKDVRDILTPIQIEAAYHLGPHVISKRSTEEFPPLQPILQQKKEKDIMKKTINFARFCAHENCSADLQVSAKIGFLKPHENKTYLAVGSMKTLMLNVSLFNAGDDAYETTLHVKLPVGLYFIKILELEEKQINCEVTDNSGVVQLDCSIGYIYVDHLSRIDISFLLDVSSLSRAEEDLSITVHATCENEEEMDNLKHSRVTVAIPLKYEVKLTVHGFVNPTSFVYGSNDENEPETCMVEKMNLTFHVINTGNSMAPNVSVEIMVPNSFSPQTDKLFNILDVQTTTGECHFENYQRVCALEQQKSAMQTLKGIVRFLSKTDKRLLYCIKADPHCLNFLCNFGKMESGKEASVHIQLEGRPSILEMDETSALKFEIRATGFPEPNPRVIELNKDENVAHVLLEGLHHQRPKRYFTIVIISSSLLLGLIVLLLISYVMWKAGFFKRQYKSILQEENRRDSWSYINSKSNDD
T1 sequence (P05556 21-798): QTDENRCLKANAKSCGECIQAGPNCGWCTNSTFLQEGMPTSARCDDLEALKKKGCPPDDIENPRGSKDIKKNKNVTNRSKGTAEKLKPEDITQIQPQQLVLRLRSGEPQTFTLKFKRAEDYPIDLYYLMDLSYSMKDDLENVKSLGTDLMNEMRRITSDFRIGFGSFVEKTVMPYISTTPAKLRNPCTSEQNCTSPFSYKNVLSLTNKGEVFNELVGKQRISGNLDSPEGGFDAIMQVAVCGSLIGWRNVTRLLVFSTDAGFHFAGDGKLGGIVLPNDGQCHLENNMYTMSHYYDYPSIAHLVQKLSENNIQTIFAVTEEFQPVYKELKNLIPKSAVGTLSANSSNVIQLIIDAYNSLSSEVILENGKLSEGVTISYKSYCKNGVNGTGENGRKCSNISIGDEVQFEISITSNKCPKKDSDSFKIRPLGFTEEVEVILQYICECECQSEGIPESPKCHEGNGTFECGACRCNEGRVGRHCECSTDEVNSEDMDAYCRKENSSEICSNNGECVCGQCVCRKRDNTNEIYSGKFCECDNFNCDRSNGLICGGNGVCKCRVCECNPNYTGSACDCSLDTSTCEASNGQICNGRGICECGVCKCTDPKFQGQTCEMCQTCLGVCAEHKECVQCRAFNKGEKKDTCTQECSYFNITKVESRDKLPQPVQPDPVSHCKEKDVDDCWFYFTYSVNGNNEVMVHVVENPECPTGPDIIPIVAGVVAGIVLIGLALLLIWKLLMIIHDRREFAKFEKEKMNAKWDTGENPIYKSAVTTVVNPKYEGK
Description: Binding inhibition is measured here as a concentration of compound that inhibits one-half the binding between a standard number of Jurkat cells and a standard amount of CS-1 compound bound to the surface of a microtiter plate well. Those concentrations are conveniently expressed as IC50 values, smaller numbers indicating a lower concentration required to inhibit 50 percent binding and therefore greater potency. Further specifics of this assay are provided hereinafter.
Jurkat cells (ATCC TIB 152), a human T lymphoblastic line, labeled with ^51 chromium were used to assay in vitro binding inhibition provided by various compounds discussed herein.
The plates were prepared as follows: The 25-mer CS-1 compound (SEQ ID NO:1) dissolved at 0.5-1 μg/ml in a buffer of 0.1M NaHCO3 at pH 9.5 that also contained 10 μg/ml of bovine serum albumin (BSA) or a conjugate of the CS-1 compound linked to ovalbumin (CS-1-OVA) dissolved at 1-2.5 μg/ml in the same buffer was used as the substrate. Each well of the microtiter plates was coated with 50 μl of substrate or buffer alone for controls. The wells were permitted to dry out completely and were then rinsed twice with PBS at pH 7.4. Non-specific binding sites of each well were then blocked using 200 μl per well of RPMI/1 percent BSA for two hours at room temperature.
Jurkat cells (3-5×10^6 cells) were placed into a 15 ml Falcon™ round-bottom tube with a cap. The tube was centrifuged, and the extra medium was then removed.
Two hundred microliters of a ^51 Cr labeling solution were added to the centrifuged cells and maintained in contact with the cells for 90-120 minutes in a warm room. […] Longer contact times provide a greater amount of labeling but lower cell viability.
The labeled cells are washed with (i) complete medium, (ii) 1 mM EDTA/PBS and then (iii) RPM1/1 percent BSA free of serum components. The cells are centrifuged after each washing. The cells are finally resuspended in serum-free RPMI/1 percent BSA at a concentration of 1×10^6 viable cells/ml, which provides a concentration that is diluted by one-half in the assay.
Inhibitor compounds are prepared as stock solutions at 20 mg/ml in DMSO in 1.5 ml cryogenic screwcap vials, and were stored at -70° C. Using Flow™ round-bottom or V-bottom microtiter plates, the inhibitor compounds were prepared at twice the assay concentration in RPMI/1 percent BSA at 60 μl/well.
Four initial dilutions were typically used.
The ^51 Cr-labeled cells ([…] at 60 μl/well) were then admixed with the diluted compound solutions. The admixtures were maintained at room temperature (about 22° C.) for 30 minutes.
One hundred microliters of each inhibitor compound/cell admixture were transferred to the substrate-coated wells. This was done in triplicate for each dilution. The resulting plates were incubated for 30 minutes at 37° C. and then washed gently three times with RPMI/1 percent BSA at 200 μl/well. Binding was observed microscopically, particularly after the second wash.
The bound cells were then lysed by the addition of a 0.5 percent solution of sodium dodecylsulfate in water at 100 μl/well. The resulting solutions were then processed for counting and calculation of IC50 values following usual procedures.
The data of Table 1 are normalized to the binding of SEQ ID NO:3. […] Multiple assays for the same compound were averaged.

| SMILES | binding inhibition, in words (compared with standard 10-mer of SEQ ID NO:3 or other compounds) |
| --- | --- |
| CCCCCCCCCCCCCCCCCCNC(=O)CCCCCNC(=O)[C@@H]1CCCN1C(=O)[C@H](Cc1ccccc1)NC(=O)[C@H](CC(=O)O)NC(=O)[C@H](CC(C)C)NC(=O)Cc1ccccc1 [1068.01, phenylacetyl-Leu-Asp-Phe-Pro-NH(CH2)5 C(O)NHC18 H37] (PhAc-LDFP[Ahx]-NHOctadecyl) | binding inhibition similar to that exhibited by the standard 10-mer compound of SEQ ID NO:3 |

same assay, conditions: binding inhibition potency (IC50) normalized to standard compound of SEQ ID NO:3 = 1; multiple assays averaged; about one-tenth or less assigned zero

| SMILES | Relative Potency |
| --- | --- |
| CC(C)C[C@H](NC(=O)Cc1ccccc1)C(=O)N[C@@H](CS(=O)(=O)O)C(=O)N[C@@H](Cc1ccccc1)C(=O)N1CCCCC1 [1026.06] (PhAc-Leu-[Cya]-Phe-Piperidide) | 0 |
| O=C(O)CC(C(=O)N[C@@H](Cc1ccccc1)C(=O)N1CCCCC1)N1CC[C@H](NC(=O)Cc2ccccc2)C1=O (stereo partly drawn) [1057.01] | .88 |
| CC(C)C[C@H](NC(=O)Cc1ccccc1)C(=O)N[C@@H](CC(=O)O)C(=O)N[C@@H](Cc1ccccc1)C(=O)N1CCN(CCOCCO)CC1 [1111.07] | 510 |
| CC(C)C[C@H](NC(=O)Cc1ccccc1)C(=O)NC(CC(=O)O)(CC(=O)O)C(=O)N[C@@H](Cc1ccccc1)C(=O)N1CCCCC1 [1026.01] | 0 |
| CC(C)C[C@H](NC(=O)Cc1ccccc1)C(=O)N[C@@H](CC(=O)O)C(=O)N[C@@H](Cc1ccccc1)C(N)=O [997.12] (PhAc-Leu-Asp-Phe-NH2) | .48 |
| CC(C)C[C@H](NC(=O)c1ccccc1)C(=O)N[C@@H](CC(=O)O)C(=O)N[C@H](C(=O)N1CCC[C@H]1C(N)=O)C(C)C [896.35] | 16 |
| NC(=O)[C@H]1CCCN1C(=O)[C@H](Cc1ccccc1)NC(=O)[C@H](CC(=O)O)NC(=O)[C@H](CC1CCCCC1)NC(=O)c1ccccc1 [896.31] (Bz-[Cha]DF[dP]-NH2) | 11 |
| CCCC[C@H](NC(=O)Cc1ccccc1)C(=O)N[C@@H](CC(=O)O)C(=O)N[C@@H](Cc1ccccc1)C(=O)N1CCC[C@@H]1C(N)=O [1160.02] (PhAc-[Nle]DF[dP]-NH2) | 49 |
| CC(C)CN(CC(=O)Nc1ccccc1)C(=O)CN(CC(=O)O)C(=O)CN(Cc1ccccc1)C(=O)C1CCCC1 [1032.02] | .63 |
| CC(C)C[C@H](NC(=O)c1ccccc1)C(=O)N[C@@H](CC(=O)O)C(=O)N[C@H](C(=O)N1CCC[C@@H]1C(N)=O)C(C)C [926.02] | 9.6 |
| CC(C)C[C@H](NC(=O)Cc1ccccc1)C(=O)N[C@@H](CC(=O)O)C(=O)N[C@@H](Cc1ccccc1)C(=O)N1CCSCC1 [1111.02] | 450 |
| CC(C)C[C@H](NC(=O)Cc1ccccc1)C(=O)N[C@@H](CC(=O)O)C(=O)NC1Cc2ccccc2N(CCN2CCOCC2)C1=O (stereo partly drawn) [997.18] | 20 |
| NC(=O)[C@H]1CCCN1C(=O)[C@H](Cc1ccccc1)NC(=O)[C@H](CC(=O)O)NC(=O)CCCCC1CCSS1 (stereo partly drawn) [1056.09] | 1.1 |
| CC(C)C[C@H](NC(=O)Cc1ccccc1)C(=O)N[C@@H](CS)C(=O)N[C@@H](Cc1ccccc1)C(=O)N1CCC[C@@H]1C(N)=O [896.59] (PhAc-LCF[dP]-NH2) | 0 |
| CC(C)C[C@H](NC(=O)Cc1ccccc1)C(=O)N[C@@H](CC(=O)O)C(=O)N1C(=O)N(Cc2ccccc2)C(=O)[C@H]1Cc1ccccc1 [1047.07] | .38 |
| CC(C)C[C@H](NC(=O)Cc1ccccc1)C(=O)N[C@@H](CC(=O)O)C(=O)N[C@@H](Cc1ccccc1)C(=O)NCCCO [1051.05] | 25 |
| CC(C)C[C@H](NC(=O)Cc1ccccc1)C(=O)N[C@@H](CS(N)(=O)=O)C(=O)N[C@@H](Cc1ccccc1)C(=O)N1CCCCC1 [1026.08] | 0 |
| CC(C)C[C@H](NC(=O)Cc1ccccc1)C(=O)N(C)[C@@H](CC(=O)O)C(=O)N[C@@H](Cc1ccccc1)C(=O)N1CCC[C@@H]1C(N)=O [1190.06] (PhAc-L[NMeD]F[dP]-NH2) | 0 |
| CC(C)C[C@H](NC(=O)Cc1ccccc1)C(=O)N[C@@H](CC(=O)O)C(=O)N(C)[C@@H](Cc1ccccc1)C(=O)N1CCC[C@@H]1C(N)=O [1190.05] (PhAc-LD[NMeF][dP]-NH2) | 0 |
| CC(C)C[C@H](NC(=O)Cc1ccccc1)C(=O)N[C@@H](CC(=O)O)C(=O)N[C@H](C(=O)N1CCC[C@@H]1C(N)=O)c1ccccc1 [896.69] (PhAc-LD[Phg][dP]-NH2) | 61 |
| CC(C)C[C@@H](CN[C@@H](CC(=O)O)C(=O)N[C@@H](Cc1ccccc1)C(=O)N1CCCCC1)NC(=O)Cc1ccccc1 [1041.01] | 0 |
| CC(C)C[C@H](NC(=O)Cc1ccccc1)C(=O)N[C@@H](CC(=O)O)C(=O)NC1CCCCN(CC(N)=O)C1=O (stereo partly drawn) [1057.06] | 97 |
| CC(C)C[C@H](NC(=O)Cc1ccccc1)C(=O)NC(C(=O)O)C(=O)N[C@@H](Cc1ccccc1)C(=O)N1CCCCC1 (stereo partly drawn) [1026.02] | 0 |

same assay, conditions: prodrug compounds, potency before enzymatic conversion to active form; relative to SEQ ID NO:3 = 1

| SMILES | Relative Potency |
| --- | --- |
| CCCCCCCCCCCCCCCCCCOC(=O)C[C@H](NC(=O)[C@H](CC(C)C)NC(=O)Cc1ccccc1)C(=O)N[C@@H](Cc1ccccc1)C(=O)N1CCC[C@@H]1C(N)=O [1068.12] (PhAc-LD(X8)F[dP]-NH2) | 0 |
| CCCCCCCCCCCCCCCCCCNC(=O)CCCCCNC(=O)[C@@H]1CCCN1C(=O)[C@H](Cc1ccccc1)NC(=O)[C@H](CC(=O)O)NC(=O)[C@H](CC(C)C)NC(=O)Cc1ccccc1 [1068.01, phenylacetyl-Leu-Asp-Phe-Pro-NH(CH2)5 C(O)NHC18 H37] (PhAc-LDFP[Ahx]-NHOctadecyl) | .91 |
| CCCCCCCCCCCCCCOC(=O)C[C@H](NC(=O)[C@H](CC(C)C)NC(=O)Cc1ccccc1)C(=O)N[C@@H](Cc1ccccc1)C(=O)N1CCC[C@@H]1C(N)=O [1068.11] (PhAc-LD(X1)F[dP]-NH2) | 0 |
| CCOC(=O)C[C@H](NC(=O)[C@H](CC(C)C)NC(=O)Cc1ccccc1)C(=O)N[C@@H](Cc1ccccc1)C(=O)N1CCC[C@@H]1C(N)=O [1190.01] (PhAc-LD(OEt)F[dP]-NH2) | 0 |
| CCCCCCCCCCOC(=O)C[C@H](NC(=O)[C@H](CC(C)C)NC(=O)Cc1ccccc1)C(=O)N[C@@H](Cc1ccccc1)C(=O)N1CCC[C@@H]1C(N)=O [1068.09] (PhAc-LD(ODecyl)F[dP]-NH2) | 0 |
| CCCCCCCCCCCCCCCCCC(=O)OC1CCN(C(=O)[C@H](Cc2ccccc2)NC(=O)[C@H](CC(=O)O)NC(=O)[C@H](CC(C)C)NC(=O)Cc2ccccc2)CC1 [1068.05] | .63 |
| CCN(CC)C(=O)COC(=O)C[C@H](NC(=O)[C@H](CC(C)C)NC(=O)Cc1ccccc1)C(=O)N[C@@H](Cc1ccccc1)C(=O)N1CCC[C@@H]1C(N)=O [1068.13] (PhAc-LD(X4)F[dP]-NH2) | 0 |
| CCCCCCCCCC(=O)OC1CCN(C(=O)[C@H](Cc2ccccc2)NC(=O)[C@H](CC(=O)O)NC(=O)[C@H](CC(C)C)NC(=O)Cc2ccccc2)CC1 [1068.06] | .63 |
| CCCCCCCCCCNC(=O)[C@@H]1CCCN1C(=O)[C@H](Cc1ccccc1)NC(=O)[C@H](CC(=O)O)NC(=O)[C@H](CC(C)C)NC(=O)Cc1ccccc1 [1068.04] (PhAc-LDFP-NHDecyl) | 2.13 |
| CCCCCCCCCCCCOC(=O)C[C@H](NC(=O)[C@H](CC(C)C)NC(=O)Cc1ccccc1)C(=O)N[C@@H](Cc1ccccc1)C(=O)N1CCC[C@@H]1C(N)=O [1068.10] (PhAc-LD(X5)F[dP]-NH2) | 0 |
| CC(C)C[C@H](NC(=O)Cc1ccccc1)C(=O)N[C@@H](CC(=O)OCC(=O)OCc1ccccc1)C(=O)N[C@@H](Cc1ccccc1)C(=O)N1CCC[C@@H]1C(N)=O [1067.01] (PhAc-LD(X7)F[dP]-NH2) | .97 |
| CC(C)C[C@H](NC(=O)Cc1ccccc1)C(=O)N[C@@H](CC(=O)OCc1ccccc1)C(=O)N[C@@H](Cc1ccccc1)C(=O)N1CCC[C@@H]1C(N)=O [1068.07] (PhAc-LD(OBn)F[dP]-NH2) | 0 |
